Assays:
[1] = Cytotoxicity (MTT) of UV-absorbing compounds in HaCaT culture without irradiation; assay type: cell-based, human; conditions: human, HaCaT keratinocytes, MTT, no irradiation, mean of 3 measurements
Description: (§1) The immortalized human keratinocytes HaCaT and reconstituted three-dimensional human epidermis model (EpiDerm, MatTek Europe, SVK) were grown in high-glucose DMEM (Sigma-Aldrich, Burlington, MA, USA) supplemented with sodium bicarbonate (3.7 g/L, Sigma-Aldrich, Burlington, MA, USA), fetal bovine serum (10% v/v, Biowest, France), and penicillin and streptomycin (100 U/mL and 100 μg/mL, respectively, Sigma-Aldrich, Burlington, MA, USA) in darkness under a humidified atmosphere with 5% CO2 at 37 °C. For all experiments, HaCaT was dissociated using TrypLE Express (Gibco by Thermo Fisher Scientific, Waltham, MA, USA) and transferred into 12-well plates at a total number of 1 × 10^5 cells and cultivated for 24 h. The UV sources with relatively homogeneous irradiance were made from commercially available phototherapeutic UV tubes [13]. […] The irradiance values were 6.8 ± 0.4 mW/cm^2 for the UVA source and 3.5 ± 0.4 mW/cm^2 for the UVB source.
(§2) HaCaT cells and Epiderm were incubated for 18 h in DMEM supplemented with UV-absorbing compounds. Irradiation of the culture cells was performed in 0.6 mL/well phosphate-buffered saline (PBS) supplemented with 5 mM glucose (PBS-G) in 12-well plates. In the case of the 3D epidermal models, for irradiation, 3 inserts were always placed in one well of a 6-well plate filled with 0.9 mL of PBS-G; otherwise, they were kept separately in a 24-well plate with 0.3 mL of DMEM per well. After irradiation, PBS was replaced with fresh DMEM and the plates with cells were placed in a CO2 incubator for 18 h. The MTT assay was initiated by adding 5 mg/mL of methylthiazol tetrazolium bromide (MTT, Sigma-Aldrich) to DMEM, resulting in a 10-fold lower concentration of MTT in each well. After 3 h, the medium was completely removed and the formazan crystals produced by the cells were dissolved in 0.6 mL of DMSO for cell cultures or in 2 mL of isopropanol for epidermal models. The absorbance of these solutions was spectroscopically measured at 570 nm.

HaCaT cells [2] = assay: Mitochondrial membrane potential (JC-1) in pre-treated HaCaT cells after UVA or UVB; assay type: cell-based, human; conditions: JC-1, concentration-dependent, UVA 24 J/cm^2 or UVB 1.2 J/cm^2
Description: The mitochondrial membrane potential in HaCaT cells was estimated using the fluorescent probe 5,5′,6,6′-tetrachloro-1,1′,3,3′ tetraethylbenzimidazolylcarbocyanine chloride (JC-1, Biotium, Fremont, CA, USA). After UV irradiation in PBS-G, JC-1 was added to the cells at the final assay concentration of 2 μg/mL and the cells were allowed to incubate for 20 min. Then, the fluorescence emission intensity was measured using a Tecan Infinite 200pro fluorescence reader at excitation and emission wavelengths of 490 nm and 590 nm, respectively.

HaCaT cells [3] = assay: Comet assay of DNA fragmentation in pre-treated HaCaT cells after UVA or UVB; assay type: cell-based, human; conditions: UVA 90 min 36 J/cm^2, HMBP 30 μM, 4-MBC 10 μM, t-UCA 300 μM, Ast 100 μM, Hyp 300 μM
Description: DNA damage caused by UVA or UVB radiation to the HaCaT cells pre-treated with UV-absorbing compounds was investigated by a comet assay. The growth medium was replaced by PBS-G and the cells were irradiated by means of the UVA or UVB sources for 90 or 8 min, respectively. After irradiation, PBS-G medium was replaced with DMEM and the cells were allowed to culture for 24 h. The Comet assay was performed as previously described by Manisova and her co-workers. The samples were finally stained by SYBR Green (Invitrogen, Thermo Fisher Scientific, Waltham, MA, USA) and manually scored using an Olympus IX 70 inverted fluorescence microscope with a CCD camera (Olympus, JPN) and CometScore 2.0 software (TriTek, Wilmington, DE, USA). Approximately 100 cells were randomly selected from each sample to assess DNA damage. The amount of DNA in the head (corresponding to low fragmentation) was evaluated.

HaCaT cells [4] = assay: Intracellular ROS production (CM-H2DCFDA) in pre-treated HaCaT cells after UVA or UVB; assay type: cell-based, human; conditions: for ROS production during UVA exposure: UVA 60 min 24 J/cm^2
Description: The production of the intracellular ROS induced by UVA or UVB after 18 h of incubation with UV-absorbing compounds was analyzed using the fluorescence probe 5-(and-6)-chloromethyl-2′,7′-dichlorodihydrofluorescein diacetate (CM-H2DCFDA, Invitrogen by Thermo Fisher Scientific, Waltham, MA, USA). The HaCaT cells were incubated in PBS-G buffer supplemented with 10 μM CM-H2DCFDA for 20 min and then, after washing twice in PBS-G, exposed to UVA or UVB radiation for 60 or 3 min. After irradiation, the fluorescence of CM-DCF was recorded using a Tecan Infinite 200 pro fluorescence reader (Tecan, Männedorf, Switzerland) at excitation and emission wavelengths 490 nm and 525 nm, respectively.

HaCaT cells [5] = assay: Cytotoxicity (MTT) of UV-absorbing compounds in HaCaT culture without irradiation; assay type: cell-based, human; conditions: for cell viability (not reduced below): at 300 μM
Description: as §1, §2

HaCaT cells [6] = assay: Phototoxicity test: MTT viability of pre-treated HaCaT cells after UVA or UVB exposure; assay type: cell-based, human; conditions: 18 h pre-incubation; for change in cell viability after UVA: UVA 60 min 24 J/cm^2, vs irradiated sample without compound
Description: In the next study, HaCaT cells were incubated with two apparently non-toxic concentrations of these UV-absorbing compounds for 18 h and then their effect on the viability of HaCaT cells exposed to UVA (for 60 min at a dose of 24 J/cm^2) and UVB radiation for 3 min (at a dose of 0.6 J/cm^2) was monitored.
as §1, §2

epidermis model EpiDerm = assay: MTT viability of pre-treated 3D epidermis model EpiDerm after UVA or UVB exposure; assay type: cell-based, human; conditions: 30 μM hyperoside or 100 μM trans-urocanic acid; 18 h or 42 h pre-incubation; UVA 24 or 36 J/cm^2
Description: Control samples without the presence of the compounds are marked as C. Each value represents mean ± S.E. from 3 measurements. * Significant difference compared to the sample without UV-absorbing compound (p < 0.05).
as §1
[…] The absorbance of these solutions was spectroscopically measured at 570 nm. The relative number of viable (oxidoreductase active) cells in the treated and untreated samples (controls) was expressed as a percentage.

HaCaT cells [7] = assay: Atomic force microscopy of HaCaT cell morphology after UV irradiation; assay type: cell-based, human; conditions: 50 µM for 4 h
Description: The size of HaCaT cells acquired by an atomic force microscope was calculated from 20 cells in an average using the NanoScope Analysis software. Cell diameter was measured along the longest part of the cell. Cells were first incubated with 50 µM hyperoside for 4 h and then irradiated with UVA radiation. […] Irradiating the cells by UV led to cluster disruption and changes in shape. It caused cell swelling, resulting in a decrease in the diameter (19.16 μm for UVA; 23.13 μm for UVB), an increase in the height (4.24 μm for UVA; 3.44 μm for UVB), and an overall elliptic shape compared to control cells (Figure 9). However, the pre-treatment of the cells with hyperoside prevented cells from those UVA-induced morphological changes. After the irradiation, the cells still formed clusters and there were no significant changes in the median of the diameter (29.87 μm) and median of the height (2.24 μm).
HaCaT cells were seeded in Petri dishes (Willco, NLD) containing 2 mL of DMEM. The following day, the cells were exposed to UVA for 90 min and UVB for 20 min. Some cells were pre-incubated with 50 μM hyperoside for 4 h. Before irradiation, the growth medium was replaced with fresh DMEM. Immediately after irradiation, AFM measurements were performed using a Bioscope Catalyst atomic force microscope (Bruker, Billerica, MA, USA). The size of the cell scan was 100 × 100 μm and the scan rate was 0.2–0.3 Hz. […]

[8] = tested on: A549 (lung adenocarcinoma); set-up: method as in PMID 31881478; conditions: A549, 24 h; read-out: concentration that halved cell viability; cited from earlier work
[9] = tested on: H1975 (non-small cell lung cancer); conditions: H1975, 24 h; read-out: concentration that halved cell viability; cited from earlier work
[10] = tested on: PANC-1 (pancreatic cancer); set-up: method as in PMID 26676634; conditions: PANC-1, 24 h; read-out: concentration that halved cell viability; cited from earlier work
[11] = 100 μM, UVB 3 min 0.6 J/cm^2, vs irradiated sample without compound

Q: With `COc1ccc(C(=O)c2ccccc2)c(O)c1` [2-hydroxy-4-methoxybenzophenone] as the molecule, how does the IC50 at 18 h [1] read?
A: Its IC50 at 18 h is 56 µM.

Q: What about the “change in mitochondrial membrane potential after UV” value (HaCaT cells [2]) of the same molecule?
A: Its value is “higher values of the mitochondrial membrane potential”.

Q: And the “DNA fragmentation after UVA (percentage of DNA in comet heads)” value (HaCaT cells [3])?
A: Its value is “reduction in DNA fragmentation”.

Q: Which results are given for `Cc1ccc(C=C2C(=O)C3(C)CCC2C3(C)C)cc1` (stereo not shown) [3-(4-methylbenzylidene)camphor]?
A: IC50 at 18 h [1]: 28 µM; ROS production during UVA exposure (HaCaT cells [4]; 3 and 10 μM): statistically significant decrease in ROS production; DNA fragmentation after UVA (percentage of DNA in comet heads) (HaCaT cells [3]): reduction in DNA fragmentation

Q: Which IC50 at 18 h [1] does the source give for `O=C(O)/C=C/c1c[nH]cn1` [trans-urocanic acid] here?
A: The IC50 at 18 h was 1100 µM.

Q: And the “cell viability (not reduced below)” value (HaCaT cells [5])?
A: Its value is ≥ 60%.

Q: What about the “change in cell viability after UVA” value (HaCaT cells [6]; 100 μM) of the same molecule?
A: Its value is “only linked with UVB radiation”.

Q: What about the “change in cell viability after UVB” value (HaCaT cells [6]; [11]) of the same molecule?
A: The value was “statistically significant increase in cell viability”.

Q: And the “change in viability of EpiDerm after UVA irradiation” value (epidermis model EpiDerm)?
A: The value was “no similar effect was observed”.

Q: For `O=c1c(O[C@@H]2O[C@H](CO)[C@@H](O)[C@H](O)[C@H]2O)c(-c2ccc(O)cc2)oc2cc(O)cc(O)c12` [astragalin], which IC50 at 18 h [1] is on record?
A: Its IC50 at 18 h is 78 µM.

Q: And the “DNA fragmentation after UVA (percentage of DNA in comet heads)” value (HaCaT cells [3])?
A: Its value is “reduction in DNA fragmentation”.

Q: For `CC1=C(/C=C/C(C)=C/C=C/C(C)=C/C=C/C=C(C)/C=C/C=C(C)/C=C/C2=C(C)CCCC2(C)C)C(C)(C)CCC1` [beta-carotene], which IC50 at 18 h [1] is on record?
A: The IC50 at 18 h was 7.3 µM.

Q: And the “change in mitochondrial membrane potential after UV” value (HaCaT cells [2])?
A: Its value is “higher values of the mitochondrial membrane potential”.

Q: For `COc1cc(O)c2c(=O)c(OC)c(-c3ccc(O)c(OC)c3)oc2c1` [pachypodol], which IC50 at 18 h [1] is on record?
A: The IC50 at 18 h was 5.1 µM.

Q: And the “reduction in cell viability” value (HaCaT cells [5]; at 10 μM)?
A: Its value is > 50%.

Q: What about the “change in cell viability after UVB” value (HaCaT cells [6]; apparently non-toxic concentrations, UVB 0.6 J/cm^2) of the same molecule?
A: Its value is “cell viability decreased significantly”.

Q: Which IC50 at 18 h [1] does the source give for `O=C(c1ccccc1)c1ccc(O)cc1O` [2,4-dihydroxybenzophenone] here?
A: The IC50 at 18 h was 85 µM.

Q: And the “change in mitochondrial membrane potential after UV” value (HaCaT cells [2])?
A: Its value is “higher values of the mitochondrial membrane potential”.

Q: Which results are given for `O=c1c(O[C@@H]2O[C@H](CO)[C@H](O)[C@H](O)[C@H]2O)c(-c2ccc(O)c(O)c2)oc2cc(O)cc(O)c12` [hyperoside]?
A: IC50 at 18 h [1]: > 300 µM; cell viability (not reduced below) (HaCaT cells [5]): ≥ 60%; change in cell viability after UVA (HaCaT cells [6]; 100 μM): also observed for UVA radiation, although to a lesser extent; change in cell viability after UVB (HaCaT cells [6]; [11]): statistically significant increase in cell viability; change in viability of EpiDerm after UVA irradiation (epidermis model EpiDerm): significantly increased its viability; ROS production during UVA exposure (HaCaT cells [4]; 100 μM): statistically significant decrease in ROS production; ROS induced by UVB irradiation (HaCaT cells [4]; 30 and 100 μM, UVB 3 min 0.6 J/cm^2): effective in reducing ROS; change in mitochondrial membrane potential after UV (HaCaT cells [2]): opposite effect; DNA fragmentation after UVA (percentage of DNA in comet heads) (HaCaT cells [3]): reduction in DNA fragmentation; median of the cell height after UVA (HaCaT cells [7]; then UVA 36 J/cm^2, untreated control 2.02 μm, UVA alone 4.24 μm): 2.24 μm; median of the cell diameter after UVA (HaCaT cells [7]; then UVA 36 J/cm^2, untreated control 31.21 μm, UVA alone 19.16 μm): 29.87 μm; IC50 [8]: ~400 µM; IC50 [9]: ~100 µM; IC50 [10]: ~550 µM

Reference: paper PMC10298051, “Hyperoside as a UV Photoprotective or Photostimulating Compound—Evaluation of the Effect of UV Radiation with Selected UV-Absorbing Organic Compounds on Skin Cells” (International Journal of Molecular Sciences, 2023)
